Assays:
SMARCA2 = biological target: T1, SMARCA2 (Homo sapiens, UniProt P51531); assay: SMARCA2 HiBiT degradation assay in HeLa cells; format: cell-based; conditions: 18 hours, highest concentration 10 μM
T1 construct: SMARCA2-HiBiT knock-in Hela monoclonal cell (CS302366); host or cells: HeLa monoclonal cells with heterozygous HiBiT knock-in at the endogenous SMARCA2 locus
Procedure: (§1) SMARCA2 HiBiT and SMARCA4 HiBiT Degradation Assay
HiBiT peptide knock-in of SMARCA2 in LgBiT expressing HEK293T cells was performed by CRISPR-mediated tagging system as described Promega. The homozygous HiBiT knock-in on c-terminus SMARCA2 was confirmed by sanger sequence. SMARCA2-HiBiT knock-in Hela monoclonal cell (CS302366) and SMARCA4-HiBiT knock-in Hela monoclonal cell (CS3023226) were purchased from Promega. The heterozygous HiBiT-knock-in was confirmed by sanger sequence in both SMARCA2-HiBiT and SMARCA4-HiBiT monoclonal cells.
(§2) SMARCA2 HiBiT and SMARCA4 HiBiT Degradation Assay in HeLa Cells
Dispense 10 ul aliquot of prepared Hela-SMARCA2-HiBiT or Hela-SMARCA4-HiBiT cells (1:1 ratio of cells:Trypan Blue (#1450013, Bio-Rad)) onto cell counting slide (#145-0011, Bio-Rad) and obtain cell density and cell viability using cell counter (TC20, Bio-Rad). Remove appropriate volume of resuspended cells from culture flask to accommodate 2500 cells/well @ 20 μL/well. Transfer Hela-HiBiT cells to 50 mL conical (#430290, Corning). Spin down at 1000 rpm for 5 min using tabletop centrifuge (SPINCHRON 15, Beckman). Discard supernatant and resuspend cell pellet in modified EMEM (#30-2003, ATCC) cell culture media containing 10% FBS (F2422-500ML, Sigma), and 1× Penicillin/Streptomycin ([…]) (30-002-CI, Corning) to a cell density of 125,000 cells/mL. Dispense 20 μLof resuspended Hela-HiBit cells per well in 384-well TC treated plate (#12-565-343, Thermo Scientific) using standard cassette (#50950372, Thermo Scientific) on Multidrop Combi (#5840310, Thermo Scientific) inside laminar flow cabinet.
Compounds were dissolved in DMSO to make 10 mM stock and 3-fold series dilutions were further conducted keeping the highest concentration 10 μM. Dispense test compounds onto plates using digital liquid dispenser (D300E, Tecan). Incubate plates in humidified tissue culture incubator @37° C. for 18 hours. Add 20 μL of prepared Nano-Glo® HiBiT Lytic detection buffer (N3050, Promega) to each well of 384-well plate using small tube cassette (#24073295, Thermo Scientific) on Multidrop Combi, incubate @ RT for 30-60 min. Read plates on microplate reader (Envision 2105, PerkinElmer) using 384 well Ultra-Sensitive luminescence mode. Raw data files and compound information reports are swept into centralized data lake and deconvoluted using automated scripts designed by TetraScience, Inc. Data analysis, curve-fitting and reporting done in Dotmatics Informatics Suite using Screening Ultra module.

SMARCA4 = biological target: T2, SMARCA4 (Homo sapiens, UniProt P51532); assay: SMARCA4 HiBiT degradation assay in HeLa cells; format: cell-based; conditions: 18 hours, highest concentration 10 μM
T2 construct: SMARCA4-HiBiT knock-in Hela monoclonal cell (CS3023226); host or cells: HeLa monoclonal cells with heterozygous HiBiT knock-in at the endogenous SMARCA4 locus
Procedure: as §1
HiBiT peptide knock-in of SMARCA2 in LgBiT expressing HEK293T cells was performed by CRISPR-mediated tagging system as described Promega. […] SMARCA2-HiBiT knock-in Hela monoclonal cell (CS302366) and SMARCA4-HiBiT knock-in Hela monoclonal cell (CS3023226) were purchased from Promega.
as §2
Remove appropriate volume of resuspended cells from culture flask to accommodate 2500 cells/well @ 20 μL/well. […] Spin down at 1000 rpm for 5 min using tabletop centrifuge (SPINCHRON 15, Beckman).
Dispense test compounds onto plates using digital liquid dispenser (D300E, Tecan). Incubate plates in humidified tissue culture incubator @37° C. for 18 hours. […] Raw data files and compound information reports are swept into centralized data lake and deconvoluted using automated scripts designed by TetraScience, Inc. Data analysis, curve-fitting and reporting done in Dotmatics Informatics Suite using Screening Ultra module.

T1 sequence (P51531 whole entry): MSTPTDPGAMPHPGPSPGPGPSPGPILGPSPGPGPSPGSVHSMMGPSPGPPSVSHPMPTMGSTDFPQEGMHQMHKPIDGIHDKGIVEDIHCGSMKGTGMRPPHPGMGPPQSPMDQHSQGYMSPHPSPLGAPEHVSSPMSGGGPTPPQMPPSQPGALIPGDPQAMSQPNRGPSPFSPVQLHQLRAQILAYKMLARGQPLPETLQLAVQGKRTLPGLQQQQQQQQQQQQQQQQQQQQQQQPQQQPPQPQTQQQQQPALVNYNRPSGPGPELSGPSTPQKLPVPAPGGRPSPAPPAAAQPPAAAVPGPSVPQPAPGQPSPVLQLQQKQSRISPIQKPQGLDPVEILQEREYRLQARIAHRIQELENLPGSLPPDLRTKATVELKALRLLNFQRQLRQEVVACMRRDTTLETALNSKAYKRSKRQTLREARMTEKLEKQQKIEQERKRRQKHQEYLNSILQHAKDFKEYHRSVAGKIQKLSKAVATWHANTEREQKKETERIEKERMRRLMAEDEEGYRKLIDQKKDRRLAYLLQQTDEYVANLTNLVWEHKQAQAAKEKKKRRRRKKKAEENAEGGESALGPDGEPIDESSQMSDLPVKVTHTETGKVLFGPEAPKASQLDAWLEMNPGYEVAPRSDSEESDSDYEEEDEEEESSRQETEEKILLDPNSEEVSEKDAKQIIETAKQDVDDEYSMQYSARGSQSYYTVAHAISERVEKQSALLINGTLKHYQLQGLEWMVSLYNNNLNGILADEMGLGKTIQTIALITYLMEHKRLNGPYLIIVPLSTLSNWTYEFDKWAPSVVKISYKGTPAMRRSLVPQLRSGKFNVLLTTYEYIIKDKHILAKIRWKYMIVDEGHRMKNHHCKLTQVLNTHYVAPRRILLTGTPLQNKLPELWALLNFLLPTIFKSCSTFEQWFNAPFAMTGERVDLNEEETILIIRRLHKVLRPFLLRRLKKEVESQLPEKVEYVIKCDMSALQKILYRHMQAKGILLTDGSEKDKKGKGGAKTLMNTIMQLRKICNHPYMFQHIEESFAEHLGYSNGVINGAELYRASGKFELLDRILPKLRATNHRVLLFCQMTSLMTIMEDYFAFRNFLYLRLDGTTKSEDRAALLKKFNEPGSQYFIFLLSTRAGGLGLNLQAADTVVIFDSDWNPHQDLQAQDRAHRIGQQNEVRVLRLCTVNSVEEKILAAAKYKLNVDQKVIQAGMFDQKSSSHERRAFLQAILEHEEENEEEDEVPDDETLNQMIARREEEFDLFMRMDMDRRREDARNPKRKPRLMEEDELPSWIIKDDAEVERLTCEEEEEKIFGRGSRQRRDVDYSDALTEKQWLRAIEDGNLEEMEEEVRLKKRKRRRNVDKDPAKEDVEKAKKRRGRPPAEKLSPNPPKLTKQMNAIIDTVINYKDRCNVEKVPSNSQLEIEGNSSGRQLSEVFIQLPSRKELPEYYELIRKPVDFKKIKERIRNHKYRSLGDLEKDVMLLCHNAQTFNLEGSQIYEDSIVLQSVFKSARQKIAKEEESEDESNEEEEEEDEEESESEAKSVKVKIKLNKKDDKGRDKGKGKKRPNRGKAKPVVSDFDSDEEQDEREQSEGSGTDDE
T2 sequence (P51532 whole entry): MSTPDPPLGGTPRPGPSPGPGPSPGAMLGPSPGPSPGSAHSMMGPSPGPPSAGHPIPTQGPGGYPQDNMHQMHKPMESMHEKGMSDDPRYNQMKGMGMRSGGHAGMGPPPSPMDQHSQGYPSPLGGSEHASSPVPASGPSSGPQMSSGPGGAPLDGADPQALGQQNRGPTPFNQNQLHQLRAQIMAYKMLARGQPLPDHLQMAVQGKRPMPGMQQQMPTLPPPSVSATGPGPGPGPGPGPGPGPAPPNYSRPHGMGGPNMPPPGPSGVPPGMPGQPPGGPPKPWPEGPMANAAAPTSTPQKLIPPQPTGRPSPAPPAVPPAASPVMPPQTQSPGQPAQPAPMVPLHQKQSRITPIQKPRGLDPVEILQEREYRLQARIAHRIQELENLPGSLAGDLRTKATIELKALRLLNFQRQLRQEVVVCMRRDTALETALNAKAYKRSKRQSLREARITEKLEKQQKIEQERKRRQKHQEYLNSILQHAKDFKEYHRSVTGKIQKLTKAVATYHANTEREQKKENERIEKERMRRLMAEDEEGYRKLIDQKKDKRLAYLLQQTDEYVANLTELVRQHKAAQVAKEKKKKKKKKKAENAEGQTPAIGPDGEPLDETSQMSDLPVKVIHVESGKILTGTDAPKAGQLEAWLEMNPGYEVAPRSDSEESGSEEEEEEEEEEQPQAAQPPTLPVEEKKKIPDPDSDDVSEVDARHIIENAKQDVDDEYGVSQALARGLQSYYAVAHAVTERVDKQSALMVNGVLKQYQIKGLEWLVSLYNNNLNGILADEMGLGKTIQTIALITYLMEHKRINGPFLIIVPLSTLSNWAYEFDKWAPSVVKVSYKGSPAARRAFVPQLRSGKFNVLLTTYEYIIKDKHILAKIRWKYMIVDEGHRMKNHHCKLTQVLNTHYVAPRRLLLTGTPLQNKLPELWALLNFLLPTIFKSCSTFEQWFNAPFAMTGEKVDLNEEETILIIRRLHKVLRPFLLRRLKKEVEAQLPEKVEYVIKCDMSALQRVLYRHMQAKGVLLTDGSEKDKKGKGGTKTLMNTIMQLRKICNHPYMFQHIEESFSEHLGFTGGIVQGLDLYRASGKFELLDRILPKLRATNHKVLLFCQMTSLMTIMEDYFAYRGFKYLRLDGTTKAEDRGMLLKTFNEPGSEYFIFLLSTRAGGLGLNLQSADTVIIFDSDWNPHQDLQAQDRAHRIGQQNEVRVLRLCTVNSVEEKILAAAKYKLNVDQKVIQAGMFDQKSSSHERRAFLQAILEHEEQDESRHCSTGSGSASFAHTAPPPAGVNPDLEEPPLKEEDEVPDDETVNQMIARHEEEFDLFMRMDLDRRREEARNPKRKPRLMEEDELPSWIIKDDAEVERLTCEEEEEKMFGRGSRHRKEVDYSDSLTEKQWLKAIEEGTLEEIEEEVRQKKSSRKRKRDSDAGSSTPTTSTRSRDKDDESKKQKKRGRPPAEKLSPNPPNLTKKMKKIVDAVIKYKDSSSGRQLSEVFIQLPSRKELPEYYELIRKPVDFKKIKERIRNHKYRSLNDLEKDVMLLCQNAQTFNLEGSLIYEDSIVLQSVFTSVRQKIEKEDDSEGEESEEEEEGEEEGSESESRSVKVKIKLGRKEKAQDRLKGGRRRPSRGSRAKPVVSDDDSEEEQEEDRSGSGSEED

Compound	DC50 (SMARCA2) [nM]	Dmax (SMARCA2) [%]	DC50 (SMARCA4) [nM]	Dmax (SMARCA4) [%]
Cc1cc(O[C@@H]2C[C@@H]3CNc4nnc(-c5cccc(Cl)c5O)cc4N3C2)ccc1CN1CCN(c2ccc3c(c2)C(=O)N(C2CCC(=O)NC2=O)C3)CC1 (stereo partly drawn) [Example 10, 3-(6-(4-(4-(((6aR,8R)-2-(3-chloro-2-hydroxyphenyl)-5,6,6a,7,8,9-hexahydropyrrolo[1′,2′:4,5]pyrazino[2,3-c]pyridazin-8-yl)oxy)-2-methylbenzyl)piperazin-1-yl)-1-oxoisoindolin-2-yl)piperidine-2,6-dione]	< 100	> 75	> 1000	50 to 75
O=C1CCC(N2Cc3ccc(N4CCN(Cc5ccc(O[C@@H]6C[C@@H]7CNc8nnc(-c9cc(F)cc(F)c9O)cc8N7C6)cc5)CC4)cc3C2=O)C(=O)N1 (stereo partly drawn) [Example 1, 3-(6-(4-(4-(((6aR,8R)-2-(3,5-difluoro-2-hydroxyphenyl)-5,6,6a,7,8,9-hexa-hydropyrrolo[1′,2′:4,5]pyrazino[2,3-c]pyridazin-8-yl)oxy)benzyl)piperazin-1-yl)-1-oxoisoindolin-2-yl)piperidine-2,6-dione]	< 100	> 75	< 100	> 75
Cc1nc(O[C@H]2CN3c4cc(-c5cccc(F)c5O)nnc4NC[C@@]3(C)C2)nc(C)c1CN1CCC(c2ccc3c(c2)C(=O)N([C@H]2CCC(=O)NC2=O)C3)CC1 [Example 78, (S)-3-(6-(1-((2-(((6aR,8R)-2-(3-fluoro-2-hydroxyphenyl)-6a-methyl-5,6,6a,7,8,9-hexahydropyrrolo[1′,2′:4,5]pyrazino[2,3-c]pyridazin-8-yl)oxy)-4,6-dimethylpyrimidin-5-yl)methyl)piperidin-4-yl)-1-oxoisoindolin-2-yl)piperidine-2,6-dione]	< 100	> 75	> 1000	< 50
Cc1cc(O[C@H]2CN3c4cc(-c5cccc(F)c5O)nnc4NC[C@@]3(C)C2)ncc1CN1CCN(c2ccc3c(c2)C(=O)N(C2CCC(=O)NC2=O)C3)CC1 (stereo partly drawn) [Example 55, 3-(6-(4-((6-(((6aR,8R)-2-(3-fluoro-2-hydroxyphenyl)-6a-methyl-5,6,6a,7,8,9-hexahydropyrrolo[1′,2′:4,5]pyrazino[2,3-c]pyridazin-8-yl)oxy)-4-methylpyridin-3-yl)methyl)piperazin-1-yl)-1-oxoisoindolin-2-yl)piperidine-2,6-dione]	< 100	> 75	< 100	50 to 75
O=C1CCC(N2Cc3ccc(N4CCN(Cc5ccc(O[C@@H]6C[C@@H]7CNc8nnc(-c9cccc(Cl)c9O)cc8N7C6)cc5)CC4)cc3C2=O)C(=O)N1 (stereo partly drawn) [Example 8, 3-(6-(4-(4-(((6aR,8R)-2-(3-chloro-2-hydroxyphenyl)-5,6,6a,7,8,9-hexahydropyrrolo[1′,2′:4,5]pyrazino[2,3-c]pyridazin-8-yl)oxy)benzyl)piperazin-1-yl)-1-oxoisoindolin-2-yl)piperidine-2,6-dione]	< 100	> 75	< 100	> 75
O=C1CCC(N2Cc3ccc(N4CCN(Cc5cnc(O[C@H]6CN7c8cc(-c9cccc(F)c9O)nnc8NC[C@]7(C(F)F)C6)nc5)CC4)cc3C2=O)C(=O)N1 (stereo partly drawn) [Example 42, 3-(6-(4-((2-(((6aS,8R)-6a-(difluoromethyl)-2-(3-fluoro-2-hydroxyphenyl)-5,6,6a,7,8,9-hexahydropyrrolo [1%2′:4,5]pyrazino[2,3-c]pyridazin-8-yl)oxy)pyrimidin-5-yl)methyl)piperazin-1-yl)-1-oxoisoindolin-2-yl)piperidine-2,6-dione]	< 100	> 75	> 1000	< 50
Cc1cc(CN2CCC(c3ccc4c(c3)C(=O)N([C@H]3CCC(=O)NC3=O)C4)CC2)ncc1O[C@H]1CN2c3cc(-c4cccc(F)c4O)nnc3NC[C@]2(C(F)F)C1 [Example 92, (S)-3-(6-(1-((5-(((6aS,8R)-6a-(difluoromethyl)-2-(3-fluoro-2-hydroxyphenyl)-5,6,6a,7,8,9-hexahydropyrrolo[1′,2′:4,5]pyrazino[2,3-c]pyridazin-8-yl)oxy)-4-methylpyridin-2-yl)methyl)piperidin-4-yl)-1-oxoisoindolin-2-yl)piperidine-2,6-dione]	< 100	> 75	< 100	50 to 75
O=C1CC[C@H](N2Cc3ccc(N4CCN(Cc5ccc(O[C@H]6CN7c8cc(-c9cccc(F)c9O)nnc8NC[C@]7(C(F)F)C6)cn5)CC4)cc3C2=O)C(=O)N1 [Example 49, (S)-3-(6-(4-((5-(((6aS,8R)-6a-(difluoromethyl)-2-(3-fluoro-2-hydroxyphenyl)-5,6,6a,7,8,9-hexahydropyrrolo [1′,2′:4,5]pyrazino[2,3-c]pyridazin-8-yl)oxy)pyridin-2-yl)methyl)piperazin-1-yl)-1-oxoisoindolin-2-yl)piperidine-2,6-dione]	< 100	> 75	100 to 1000	< 50

Now from value to molecule:

DC50 (SMARCA2) [nM]	Dmax (SMARCA2) [%]	DC50 (SMARCA4) [nM]	Dmax (SMARCA4) [%]	Compound
< 100	> 75	> 1000	< 50	Cc1nc(O[C@H]2CN3c4cc(-c5cccc(F)c5O)nnc4NC[C@@]3(C)C2)ncc1CN1CCC(c2ccc3c(c2)C(=O)N([C@H]2CCC(=O)NC2=O)C3)CC1 [Example 77, (S)-3-(6-(1-((2-(((6aR,8R)-2-(3-fluoro-2-hydroxyphenyl)-6a-methyl-5,6,6a,7,8,9-hexahydropyrrolo[1′,2′:4,5]pyrazino[2,3-c]pyridazin-8-yl)oxy)-4-methylpyrimidin-5-yl)methyl)piperidin-4-yl)-1-oxoisoindolin-2-yl)piperidine-2,6-dione]
< 100	> 75	100 to 1000	< 50	Cc1nc(O[C@H]2CN3c4cc(-c5cccc(F)c5O)nnc4NC[C@@]3(C)C2)nc(C)c1CN1CCN(c2ccc3c(c2)C(=O)N([C@H]2CCC(=O)NC2=O)C3)CC1 [Example 75, (S)-3-(6-(4-((2-(((6aR,8R)-2-(3-fluoro-2-hydroxyphenyl)-6a-methyl-5,6,6a,7,8,9-hexahydropyrrolo[1′,2′:4,5]pyrazino[2,3-c]pyridazin-8-yl)oxy)-4,6-dimethylpyrimidin-5-yl)methyl)piperazin-1-yl)-1-oxoisoindolin-2-yl)piperidine-2,6-dione]
< 100	> 75	< 100	50 to 75	CC[C@@]12CNc3nnc(-c4cccc(F)c4O)cc3N1C[C@H](Oc1cc(C)c(CN3CCN(c4ccc5c(c4)C(=O)N([C@H]4CCC(=O)NC4=O)C5)CC3)cn1)C2 [Example 56, 3-(6-(4-((6-(((6aR,8R)-6a-Ethyl-2-(3-fluoro-2-hydroxyphenyl)-5,6,6a,7,8,9-hexahydropyrrolo[1′,2′:4,5]pyrazino[2,3-c]pyridazin-8-yl)oxy)-4-methylpyridin-3-yl)methyl)piperazin-1-yl)-1-oxoisoindolin-2-yl)piperidine-2,6-dione]
< 100	> 75	< 100	50 to 75	CC[C@]12CNc3nnc(-c4cccc(F)c4O)cc3N1C[C@H](Oc1cnc(CN3CCN(c4ccc5c(c4)CN([C@H]4CCC(=O)NC4=O)C5=O)CC3)c(C(F)(F)F)c1)C2 [Example 73, (S)-3-(5-(4-((5-(((6aS,8R)-6a-ethyl-2-(3-fluoro-2-hydroxyphenyl)-5,6,6a,7,8,9-hexahydropyrrolo[1′,2′:4,5]pyrazino[2,3-c]pyridazin-8-yl)oxy)-3-(trifluoromethyl)pyridin-2-yl)methyl)piperazin-1-yl)-1-oxoisoindolin-2-yl)piperidine-2,6-dione]
